Values quoted from earlier work as cited in paper PMC12122562, “Phase 1 studies of the indenoisoquinolines LMP776 and LMP744 in patients with solid tumors and lymphomas” (Cancer Chemotherapy and Pharmacology, 2025).
Read-outs that look alike come from different tables or passages of the source.

How the values were obtained:
[1] = system: patients with advanced solid tumors; details: cited from earlier work
[2] = system: advanced solid tumors; parameters: method as in PMID 27169793; details: cited from earlier work
[3] = system: naturally occurring lymphomas; parameters: method as in PMID 30061364; details: canines with lymphomas; cited from earlier work
[4] = system: PTEN-null glioblastoma cells; parameters: method as in PMID 37706203; details: combined with the PARP inhibitor niraparib; cited from earlier work

## COc1cc2c3c(n(CCCN4CCOCC4)c(=O)c2cc1OC)-c1cc2c(cc1C3=O)OCO2 [LMP400]
[1]
  Nausea, prevalence: 5%
[1]; grade 2, n=21, ref 1 (suppl.)
  Alanine aminotransferase increased, patients: 3
  Anemia, patients: 8
  Aspartate aminotransferase increased, patients: 2
  Blood bilirubin increased, patients: 2
  Diarrhea, patients: 1
  Dyspepsia, patients: 1
  Fatigue, patients: 3
  Hyperkalemia, patients: 1
  Hypophosphatemia, patients: 1
  Lethargy, patients: 1
  Lymphocyte count decreased, patients: 4
  Nausea, patients: 1
  Neutropenia, patients: 1
  Weight loss, patients: 1
  White blood cell count decreased, patients: 1
[1]; grade 3, n=21, ref 1 (suppl.)
  Anemia, patients: 2
  Fatigue, patients: 1
  Febrile Neutropenia, patients: 2
  Lymphocyte count decreased, patients: 3
  White blood cell count decreased, patients: 1
[1]; grade 4, n=21, ref 1 (suppl.)
  Neutropenia, patients: 3
  Platelet count decreased, patients: 3
  White blood cell count decreased, patients: 2
[2]
  Best response: stable disease
[3]
  Responders: 9 of 27
  Response rate: 33.3%
[4]
  Cell killing activity in combination: synergistic cell killing activity
